How the values were obtained:
Settings in all cases: concentration of 100 nM
MKK4 = molecular target: T1, MKK4 (Homo sapiens, UniProt P45985); assay: KINOMEscan competition binding assay, MKK4 potency
T1 construct: S84/D399; host or cells: HEK-293
T1 sequence (P45985 84-399): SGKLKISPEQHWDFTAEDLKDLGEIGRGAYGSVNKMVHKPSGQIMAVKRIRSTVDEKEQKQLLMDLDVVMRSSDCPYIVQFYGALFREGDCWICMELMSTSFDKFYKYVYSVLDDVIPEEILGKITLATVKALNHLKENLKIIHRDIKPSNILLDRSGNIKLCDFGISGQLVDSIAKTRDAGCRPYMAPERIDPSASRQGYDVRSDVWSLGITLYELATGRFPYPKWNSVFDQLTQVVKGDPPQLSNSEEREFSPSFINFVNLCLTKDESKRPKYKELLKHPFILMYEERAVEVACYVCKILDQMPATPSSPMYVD
Protocol: (§1) The assay was performed by combining three components: DNA-tagged kinase; immobilized ligand; and a test compound. The ability of the test compound to compete with the immobilized ligand was measured via quantitative PCR of the DNA tag. The technology is described in detail in Fabian, M. A. et al. A small molecule-kinase interaction map for clinical kinase inhibitors. Nat. […] M. W. et al. A quantitative analysis of kinase inhibitor selectivity, Nat.
(§2) For investigation of the affinity to MKK4, MKK7 and JNK1, the kinases were produced in HEK-293 cells and subsequently tagged with DNA for qPCR detection. […] The liganded beads were blocked with excess biotin and washed with blocking buffer (SEABLOCK™ (Pierce), 1% BSA, 0.05% TWEEN®20, 1 mM DTT) to remove unbound ligand and to reduce nonspecific binding. […] All reactions were performed in polystyrene 96-well plates in a final volume of 0.135 mL. […] The kinase concentration in the eluates was measured by qPCR.
(§3) The test compounds were provided as 10 mM stock solutions. The test solutions at indicated final concentrations were prepared at DiscoverX.

BRaf = BRaf (Homo sapiens, UniProt P15056); assay: KINOMEscan competition binding assay, selectivity against off-target BRaf
Protocol: as §1, §3

JNK1 = molecular target: T2, JNK1 (Homo sapiens, UniProt P45983); assay: KINOMEscan competition binding assay, selectivity against off-target JNK1
T2 construct: M1/Q384; host or cells: HEK-293
Protocol: as §1, §2, §3

MKK7 = molecular target: T3, MKK7 (Homo sapiens, UniProt O14733); assay: KINOMEscan competition binding assay, selectivity against off-target MKK7
T3 construct: M1/R419; host or cells: HEK-293
T3 sequence (O14733 1-419): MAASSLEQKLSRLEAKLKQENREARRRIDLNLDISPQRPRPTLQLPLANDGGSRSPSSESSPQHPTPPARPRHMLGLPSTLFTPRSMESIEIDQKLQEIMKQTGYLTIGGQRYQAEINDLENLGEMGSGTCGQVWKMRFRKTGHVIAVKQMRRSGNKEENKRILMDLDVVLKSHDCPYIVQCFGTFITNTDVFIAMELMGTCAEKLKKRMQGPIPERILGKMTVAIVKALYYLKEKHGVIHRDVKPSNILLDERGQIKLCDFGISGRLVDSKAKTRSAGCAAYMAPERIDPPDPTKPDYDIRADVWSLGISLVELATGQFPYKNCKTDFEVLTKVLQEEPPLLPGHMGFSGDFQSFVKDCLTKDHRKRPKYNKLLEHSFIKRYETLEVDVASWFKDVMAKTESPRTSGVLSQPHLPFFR
Protocol: as §1, §2, §3

T2 sequence (P45983 1-384 isoform P45983-2): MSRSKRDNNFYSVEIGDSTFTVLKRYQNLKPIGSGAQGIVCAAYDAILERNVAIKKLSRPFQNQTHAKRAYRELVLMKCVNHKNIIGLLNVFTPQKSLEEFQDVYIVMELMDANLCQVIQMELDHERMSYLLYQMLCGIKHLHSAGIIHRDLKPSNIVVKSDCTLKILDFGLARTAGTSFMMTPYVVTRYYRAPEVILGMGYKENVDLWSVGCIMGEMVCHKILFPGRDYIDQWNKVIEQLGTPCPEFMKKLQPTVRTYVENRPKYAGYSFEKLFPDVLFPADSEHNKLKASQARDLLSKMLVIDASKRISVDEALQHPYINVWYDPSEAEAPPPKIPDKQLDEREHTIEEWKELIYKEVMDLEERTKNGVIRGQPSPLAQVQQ
Chain of BRaf (P15056 whole entry): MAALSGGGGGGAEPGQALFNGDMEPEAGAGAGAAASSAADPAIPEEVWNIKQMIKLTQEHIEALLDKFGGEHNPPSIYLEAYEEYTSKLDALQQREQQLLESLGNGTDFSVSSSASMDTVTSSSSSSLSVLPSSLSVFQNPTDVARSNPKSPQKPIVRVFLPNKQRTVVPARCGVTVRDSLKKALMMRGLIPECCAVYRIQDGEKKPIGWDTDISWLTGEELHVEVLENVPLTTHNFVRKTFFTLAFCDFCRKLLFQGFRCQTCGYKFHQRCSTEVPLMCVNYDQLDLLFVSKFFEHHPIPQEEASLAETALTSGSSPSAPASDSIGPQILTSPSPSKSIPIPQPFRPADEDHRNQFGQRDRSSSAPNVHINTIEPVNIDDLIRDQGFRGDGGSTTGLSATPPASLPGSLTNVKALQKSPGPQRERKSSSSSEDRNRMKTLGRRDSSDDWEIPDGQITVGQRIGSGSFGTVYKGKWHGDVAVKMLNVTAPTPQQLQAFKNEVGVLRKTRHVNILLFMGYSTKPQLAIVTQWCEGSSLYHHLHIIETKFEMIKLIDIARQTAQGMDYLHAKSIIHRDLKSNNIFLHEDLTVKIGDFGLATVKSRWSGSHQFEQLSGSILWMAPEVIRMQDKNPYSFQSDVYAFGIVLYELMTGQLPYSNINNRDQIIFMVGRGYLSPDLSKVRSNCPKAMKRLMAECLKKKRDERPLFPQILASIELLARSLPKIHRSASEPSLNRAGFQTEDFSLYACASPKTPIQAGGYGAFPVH

| Structure (SMILES) | MKK4, residual percent of control binding (PoC) (MKK4) | Selectivity vs. BRaf, ratio PoC(BRaf)/PoC(MKK4) (BRaf) | Selectivity vs. JNK1, ratio PoC(JNK1)/PoC(MKK4) (JNK1) | Selectivity vs. MKK7, ratio PoC(MKK7)/PoC(MKK4) (MKK7) |
| --- | --- | --- | --- | --- |
| CCCS(=O)(=O)Nc1ccc(F)c(C(=O)c2n[nH]c3ncc(-c4ccc(OC)cc4)cc23)c1F [Example 6, N-(2,4-difluoro-3-(5-(4-methoxyphenyl)-1H-pyrazo-lo[3,4-b]pyridine-3-carbonyl)-phenyl)propane-1-sulfon-amide] | ++ (1 ≤ PoC < 10) | O (PoC(BRaf)/PoC(MKK4) < 3) | ++ (30 > PoC(JNK1)/PoC(MKK4) ≥ 10) | ++ (30 > PoC(MKK7)/PoC(MKK4) ≥ 10) |
| CCCS(=O)(=O)Nc1ccc(F)c(C(=O)c2n[nH]c3ncc(-c4cccc(Cl)c4)cc23)c1F [Example 7, N-(3-(5-(3-chlorophenyl)-1H-pyrazolo[3,4-b]pyridine-3-carbonyl)-2,4-difluorophenyl)-propane-1-sulfonamide] | O (PoC ≥ 30) | O (PoC(BRaf)/PoC(MKK4) < 3) | O (PoC(JNK1)/PoC(MKK4) < 3) | O (PoC(MKK7)/PoC(MKK4) < 3) |
| CCCS(=O)(=O)Nc1ccc(F)c(C(=O)c2n[nH]c3ncc(-c4ccc(C(C)(C)C)cc4)cc23)c1F [Example 10, N-(3-(5-(4-tert-butylphenyl)-1H-pyrazolo[3,4-b]pyridine-3-carbonyl)-2,4-difluoro-phenyl)propane-1-sulfon-amide] | O (PoC ≥ 30) | O (PoC(BRaf)/PoC(MKK4) < 3) | O (PoC(JNK1)/PoC(MKK4) < 3) | O (PoC(MKK7)/PoC(MKK4) < 3) |
| CCCS(=O)(=O)Nc1ccc(F)c(C(=O)c2n[nH]c3ncc(-c4ccc(C(C)C)cc4)cc23)c1F [Example 11, N-(2,4-difluoro-3-(5-(4-isopropylphenyl)-1H-pyrazo-lo[3,4-b]pyridine-3-carbonyl)phenyl)propane-1-sulfon-amide] | + (10 ≤ PoC < 30) | + (10 > PoC(BRaf)/PoC(MKK4) ≥ 3) | + (10 > PoC(JNK1)/PoC(MKK4) ≥ 3) | + (10 > PoC(MKK7)/PoC(MKK4) ≥ 3) |
| CCCS(=O)(=O)Nc1ccc(F)c(C(=O)c2n[nH]c3ncc(-c4ccc(C)c(C)c4)cc23)c1F [Example 12, N-(3-(5-(3,4-dimethyl-phenyl)-1H-pyrazolo[3,4-b]pyridine-3-carbonyl)-2,4-difluorophenyl)-propane-1-sulfonamide] | + (10 ≤ PoC < 30) | O (PoC(BRaf)/PoC(MKK4) < 3) | + (10 > PoC(JNK1)/PoC(MKK4) ≥ 3) | + (10 > PoC(MKK7)/PoC(MKK4) ≥ 3) |
| CCCS(=O)(=O)Nc1ccc(F)c(C(=O)c2n[nH]c3ncc(-c4cccc(F)c4)cc23)c1F [Example 16, N-(2,4-difluoro-3-(5-(3-fluorophenyl)-1H-pyrazo-lo[3,4-b]pyridine-3-carbonyl)-phenyl)propane-1-sulfon-amide] | ++ (1 ≤ PoC < 10) | O (PoC(BRaf)/PoC(MKK4) < 3) | ++ (30 > PoC(JNK1)/PoC(MKK4) ≥ 10) | ++ (30 > PoC(MKK7)/PoC(MKK4) ≥ 10) |
| CCCS(=O)(=O)Nc1ccc(F)c(C(=O)c2n[nH]c3ncc(-c4ccc(C)cc4)cc23)c1F [Example 20, N-(2,4-difluoro-3-(5-p-tolyl-1H-pyrazolo[3,4-b]pyridine-3-carbonyl)phenyl)propane-1-sulfonamide] | ++ (1 ≤ PoC < 10) | O (PoC(BRaf)/PoC(MKK4) < 3) | ++ (30 > PoC(JNK1)/PoC(MKK4) ≥ 10) | ++ (30 > PoC(MKK7)/PoC(MKK4) ≥ 10) |
| CCCS(=O)(=O)Nc1ccc(F)c(C(=O)c2n[nH]c3ncc(-c4cc(Cl)cc(Cl)c4)cc23)c1F [Example 22, N-(3-(5-(3,5-dichloro-phenyl)-1H-pyrazolo[3,4-b]pyridine-3-carbonyl)-2,4-difluoro-phenyl)propane-1-sulfon-amide] | O (PoC ≥ 30) | O (PoC(BRaf)/PoC(MKK4) < 3) | O (PoC(JNK1)/PoC(MKK4) < 3) | O (PoC(MKK7)/PoC(MKK4) < 3) |
| CCCS(=O)(=O)Nc1ccc(F)c(C(=O)c2n[nH]c3ncc(-c4ccccc4N)cc23)c1F [Example 26, N-(3-(5-(2-aminophenyl)-1H-pyrazolo[3,4-b]pyridine-3-carbonyl)-2,4-difluorophenyl)-propane-1-sulfonamide] | + (10 ≤ PoC < 30) | + (10 > PoC(BRaf)/PoC(MKK4) ≥ 3) | + (10 > PoC(JNK1)/PoC(MKK4) ≥ 3) | + (10 > PoC(MKK7)/PoC(MKK4) ≥ 3) |
| CCCS(=O)(=O)Nc1ccc(F)c(C(=O)c2n[nH]c3ncc(-c4cccc(N(C)C)c4)cc23)c1F [Example 28, N-(3-(5-(3-(dimethyl-amino)phenyl)-1H-pyrazo-lo[3,4-b]pyridine-3-carbonyl)-2,4-difluoro-phenyl)propane-1-sulfonamide] | + (10 ≤ PoC < 30) | O (PoC(BRaf)/PoC(MKK4) < 3) | + (10 > PoC(JNK1)/PoC(MKK4) ≥ 3) | + (10 > PoC(MKK7)/PoC(MKK4) ≥ 3) |

Now from value to compound:

| MKK4, residual percent of control binding (PoC) (MKK4) | Selectivity vs. BRaf, ratio PoC(BRaf)/PoC(MKK4) (BRaf) | Selectivity vs. JNK1, ratio PoC(JNK1)/PoC(MKK4) (JNK1) | Selectivity vs. MKK7, ratio PoC(MKK7)/PoC(MKK4) (MKK7) | Structure (SMILES) |
| --- | --- | --- | --- | --- |
| + (10 ≤ PoC < 30) | O (PoC(BRaf)/PoC(MKK4) < 3) | + (10 > PoC(JNK1)/PoC(MKK4) ≥ 3) | + (10 > PoC(MKK7)/PoC(MKK4) ≥ 3) | CCCS(=O)(=O)Nc1ccc(F)c(C(=O)c2n[nH]c3ncc(-c4cccc(C)c4)cc23)c1F [Example 29, N-(2,4-difluoro-3-(5-m-tolyl-1H-pyrazolo[3,4-b]pyridine-3-carbonyl)phenyl)propane-1-sulfonamide] |
| O (PoC ≥ 30) | O (PoC(BRaf)/PoC(MKK4) < 3) | O (PoC(JNK1)/PoC(MKK4) < 3) | O (PoC(MKK7)/PoC(MKK4) < 3) | CCCS(=O)(=O)Nc1ccc(F)c(C(=O)c2n[nH]c3ncc(-c4cccc(C(F)(F)F)c4)cc23)c1F [Example 30, N-(2,4-difluoro-3-(5-(3-(trifluoromethyl)phenyl)-1H-pyrazolo[3,4-b]pyridine-3-carbonyl)phenyl)propane-1-sulfonamide] |
| O (PoC ≥ 30) | O (PoC(BRaf)/PoC(MKK4) < 3) | O (PoC(JNK1)/PoC(MKK4) < 3) | O (PoC(MKK7)/PoC(MKK4) < 3) | CCCS(=O)(=O)Nc1ccc(F)c(C(=O)c2n[nH]c3ncc(-c4ccc(Cl)c(Cl)c4)cc23)c1F [Example 33, N-(3-(5-(3,4-dichloro-phenyl)-1H-pyrazolo[3,4-b]pyridine-3-carbonyl)-2,4-difluoro-phenyl)-propane-1-sulfon-amide] |
| + (10 ≤ PoC < 30) | O (PoC(BRaf)/PoC(MKK4) < 3) | O (PoC(JNK1)/PoC(MKK4) < 3) | + (10 > PoC(MKK7)/PoC(MKK4) ≥ 3) | CCCS(=O)(=O)Nc1ccc(F)c(C(=O)c2n[nH]c3ncc(-c4ccc(C(F)(F)F)cc4)cc23)c1F [Example 34, N-(2,4-difluoro-3-(5-(4-(trifluoromethyl)phenyl)-1H-pyrazolo[3,4-b]pyridine-3-carbonyl)-phenyl)propane-1-sulfonamide] |
| + (10 ≤ PoC < 30) | + (10 > PoC(BRaf)/PoC(MKK4) ≥ 3) | + (10 > PoC(JNK1)/PoC(MKK4) ≥ 3) | + (10 > PoC(MKK7)/PoC(MKK4) ≥ 3) | CCCS(=O)(=O)Nc1ccc(F)c(C(=O)c2n[nH]c3ncc(-c4ccc(Cl)cc4Cl)cc23)c1F [Example 35, N-(3-(5-(2,4-dichlorophenyl)-1H-pyrazolo[3,4-b]pyridine-3-carbonyl)-2,4-difluoro-phenyl)propane-1-sulfonamide] |
